Reference: patent US8673910B2, “Proteasome inhibitors for selectively inducing apoptosis in cancer cells” (H. Lee Moffitt Cancer Center and Research Institute, priority 2008, dated 2014)
Like-named read-outs stand apart in the source and are kept apart here.

What was measured:
[1] = target: T1, chymotrypsin-like (CT-L) activity of purified 20S rabbit proteasome (Oryctolagus cuniculus, UniProt G1T4Q9); test: Proteolytic activity of purified 20S proteasome, fluorogenic substrate Suc-Leu-Leu-Val-Tyr-AMC; assay type: biochemical; conditions: for IC50 / proteasome (chymotrypsin-like) inhibitory activity, in words: purified rabbit 20S proteasome; for decrease of proteasome inhibition activity relative to comparator compound: 14u, 14v vs linear acetic acid analogues, 14q vs lead compound 10a
T1 sequence (G1T4Q9 1-263): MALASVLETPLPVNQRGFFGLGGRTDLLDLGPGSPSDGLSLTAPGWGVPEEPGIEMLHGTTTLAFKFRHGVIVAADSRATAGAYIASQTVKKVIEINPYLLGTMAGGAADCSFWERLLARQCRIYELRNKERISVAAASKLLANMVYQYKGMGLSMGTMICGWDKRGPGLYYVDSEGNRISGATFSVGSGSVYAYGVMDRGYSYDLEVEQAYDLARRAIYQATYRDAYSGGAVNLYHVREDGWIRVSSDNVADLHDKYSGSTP

[2] = target: T2, CT-L activity of the proteasome in MCF-7 human breast cancer cells (Homo sapiens, UniProt P20618+P28074); test: Proteolytic activity in cell lysates of treated intact MCF-7 cells; assay type: cell-based; conditions: intact cells treated 16 h, CT-L measured in cell lysates; two determinations where two values
T2 construct: endogenous in cells; host or cells: MCF-7
Description: Human MCF-7 breast cancer cells were cultured in DMEM medium containing 10% fetal calf serum (FCS) and 100 units/ml of penicillin and 100 μg/ml of streptomycin. Cells were maintained at 37° C. in a humidified incubator in an atmosphere of 5% CO2. Cells were treated with different concentrations of PI-083, YG1-080, YG1-075, HL2-090-2, HL2-090-4, HL2-090-6, and HL2-090-9 or vehicle control (DMSO) for 16 h.
Intact cells were treated with compounds and lysates prepared as described above. Cell lysates (5 μg) was incubated with 20 μM Suc-Leu-Leu-Val-Tyr-AMC for the CT-L activity for 1 h at 37° C. in 100 μl of assay buffer (50 mM Tris-HCl, pH 7.6). After incubation, production of hydrolyzed 7-amido-4-methyl-coumarin (AMC) groups was measured using a WALLAC Victor^2 1420 Multilabel Counter with an excitation filter of 355 nm and an emission filter of 460 nm (Perkin Elmer Life Sciences, Turku, Finland).

[3] = tested on: MCF-7 breast cancer cells; test: MTT metabolism assay; assay type: cell-based, human; conditions: MCF-7, 72 h (Table 6), read-out: IC50 for cell viability measured by MTT assay in MCF-7 human breast cancer cells
Description: Cells were plated in 96-well plates in 100 μl medium and allowed to attach overnight. […] Media was aspirated after 24 or 72 hours and replaced with 100 μl complete media containing 1 mg/ml MTT and incubated for three hours at 37° C. in 5% CO2 humidified incubator. Media was then aspirated and DMSO was added. Cells were incubated for 10 min at room temperature while shaking, and the absorbance was determined at 540 nm using a μQuant spectrophotometric plate reader (Bio-TEK, Winooski, Vt.).
Cells were plated in 96-well plates in 100 μl medium and allowed to attach overnight. Cells were then incubated for 72 h with varying concentrations of PI-083, YG1-080, YG1-075, HL2-090-2, HL2-090-4, HL2-090-6, and HL2-090-9 or vehicle control (DMSO). Media was aspirated and replaced with 100 μl complete media containing 1 mg/ml MTT and incubated for three hours at 37° C. in 5% CO2 humidified incubator. Media was then aspirated and DMSO was added. Cells were incubated for 10 min at room temperature while shaking, and the absorbance was determined at 540 nm using a μQuant spectrophotometric plate reader (Bio-TEK, Winooski, Vt.).

[4] = hydronaphthoquinone sulfonamides (Table 9), read-out: IC50 (μM), inhibition of chymotrypsin-like activity
[5] = PI-083 derivatives (Table 7, naphthoquinone library), read-out: IC50 (μM) Chymotrypsin-like activity

SMILES | IC50 [1, 4] [µM] | proteasome (chymotrypsin-like) inhibitory activity, in words [1] | also measured
CCOC(=O)CSc1cc(NS(=O)(=O)c2cccs2)c2ccccc2c1O [Compound 9a, Ethyl 2-(1-hydroxy-4-(thiophene-2-sulfonamido)naphthalen-2-ylthio)acetate] | 7.33 ± 2.82 |  | 
O=C1C(Cl)=C(Nc2ccc(S(=O)(=O)Nc3cnn(-c4ccccc4)c3)cc2)C(=O)c2ccccc21 [Compound 2b, 4-(3-chloro-1,4-dioxo-1,4-dihydronaphthalen-2-ylamino)-N-(1-phenyl-1H-pyrazol-4-yl)benzenesulfonamide] |  |  | IC50 [1, 5]: 7.4 µM; IC50 [2]: > 10 µM; melting point: 230 to 231 °C
O=C(O)CSc1cc(NS(=O)(=O)c2cccs2)c2ccccc2c1O [Compound 10a, 2-(1-hydroxy-4-(thiophene-2-sulfonamido)naphthalen-2-ylthio)acetic acid] | 1.3 ± 0.76 | comparable proteasome inhibition activity to the commercial sample HLM-008182 | IC50 ([1]; hydronaphthoquinone sulfonamides (Table 9), listed as HLM-008182, read-out: IC50 (μM), inhibition of chymotrypsin-like activity): 0.65 ± 0.4 µM; IC50 ([3]; Homo sapiens, MCF7, 72 h): 7.67 ± 1.61 µM; IC50 [3]: 10.9 ± 2.77 µM
CCOC(=O)CSc1cc(NS(=O)(=O)c2ccccc2)c2ccccc2c1O [Compound 9c, Ethyl 2-(1-hydroxy-4-(phenylsulfonamido)naphthalen-2-ylthio)acetate] | 5.27 ± 2.23 |  | 
COC(=O)CCSc1cc(NS(=O)(=O)c2cccs2)c2ccccc2c1O [Compound 9b, Methyl 3-(1-hydroxy-4-(thiophene-2-sulfonamido)naphthalen-2-ylthio)propanoate] | 4.99 ± 2.08 |  | 
O=C(O)CS(=O)(=O)c1cc(NS(=O)(=O)c2cccs2)c2ccccc2c1O [Compound 10f, 2-(1-hydroxy-4-(thiophene-2-sulfonamido)naphthalen-2-ylsulfonyl)acetic acid] |  | diminished the inhibitory activity | 
Cc1nnc(NS(=O)(=O)c2ccc(NC3=C(Cl)C(=O)c4ccccc4C3=O)cc2)s1 [Compound 2f, 4-(3-chloro-1,4-dioxo-1,4-dihydronaphthalen-2-ylamino)-N-(5-methyl-1,3,4-thiadiazol-2-yl)benzenesulfonamide] |  |  | IC50 [1, 5]: 3.9 µM; IC50 [2]: > 10 µM; melting point: 220 °C (dec.)
Cc1noc(NS(=O)(=O)c2ccc(NC3=C(Cl)C(=O)c4ccccc4C3=O)cc2)c1C [Compound 2h, 4-(3-chloro-1,4-dioxo-1,4-dihydronaphthalen-2-ylamino)-N-(3,4-dimethylisoxazol-yl)-benzenesulfonamide] |  |  | IC50 [1, 5]: 6.4 µM; IC50 [2]: > 10 µM; melting point: 208 to 210 °C
O=C(O)CCSc1cc(NS(=O)(=O)c2cccs2)c2ccccc2c1O [Compound 10b, 3-(1-hydroxy-4-(thiophene-2-sulfonamido)naphthalen-2-ylthio)propanoic acid] | > 10 |  | 
Cc1cc(NS(=O)(=O)c2ccc(NC3=C(Cl)C(=O)c4ccccc4C3=O)cc2)no1 [Compound 2d, 4-(3-chloro-1,4-dioxo-1,4-dihydronaphthalen-2-ylamino)-N-(5-methylisoxazol-3-yl)benzenesulfonamide] |  |  | IC50 [1, 5]: 5.9 µM; IC50 [2]: > 10 µM; melting point: 215 to 217 °C
Cn1nnnc1Sc1cc(NS(=O)(=O)c2cccs2)c2ccccc2c1O [Compound 14d, N-(4-hydroxy-3-(1-methyl-1H-tetrazol-5-ylthio)naphthalen-1-yl)thiophene-2-sulfonamide] | 4.25 ± 2.13 | comparable inhibition potency against proteasome to the lead compound | 
O=C1C(Cl)=C(Nc2ccc(S(=O)(=O)Nc3nccs3)cc2)C(=O)c2ccccc21 [Compound 2s, 4-(3-chloro-1,4-dioxo-1,4-dihydronaphthalen-2-ylamino)-N-(thiazol-2-yl)benzene-sulfonamide] |  |  | IC50 [1, 5]: 3.3 µM; IC50 [2]: > 10 µM; melting point: 286 to 288 °C
O=S(=O)(Nc1cc(Sc2ncn[nH]2)c(O)c2ccccc12)c1cccs1 [Compound 14e, N-(3-(1H-1,2,4-triazol-5-ylthio)-4-hydroxynaphthalen-1-yl)thiophene-2-sulfonamide] |  | comparable inhibition potency against proteasome to the lead compound | 
O=S(=O)(Nc1ccc(O)c2ccccc12)c1cccs1 [Compound 3, N-(4-hydroxynaphthalen-1-yl)thiophene-2-sulfonamide] |  | loss of the inhibitory activity | 
O=C(O)COc1cc(NS(=O)(=O)c2cccs2)c2ccccc2c1O [Compound 10d, 2-(1-hydroxy-4-(thiophene-2-sulfonamido)naphthalen-2-yloxy)acetic acid] |  | diminished the inhibitory activity | 
CCOC(=O)CSc1cc(NS(=O)(=O)c2ccc([N+](=O)[O-])cc2)c2ccccc2c1O [Compound 9e, Ethyl 2-(1-hydroxy-4-(4-nitrophenylsulfonamido)naphthalen-2-ylthio)acetate] | 3.57 ± 1.53 |  | 

The next lines start with results.

IC50 [1, 4] [µM] | proteasome (chymotrypsin-like) inhibitory activity, in words [1] | SMILES | also measured
4.83 ± 0.79 |  | O=C(O)CSc1cc(NS(=O)(=O)c2ccc3ccccc3c2)c2ccccc2c1O [Compound 14q, 2-(1-hydroxy-4-(naphthalene-2-sulfonamido)naphthalen-2-ylthio)acetic acid] | decrease of proteasome inhibition activity relative to comparator compound [1]: 3 fold
 | the inhibitory activity totally lost | CCSc1cc(NS(=O)(=O)c2cccs2)c2ccccc2c1O [Compound 14j, N-(3-(ethylthio)-4-hydroxynaphthalen-1-yl)thiophene-2-sulfonamide] | 
3.75 ± 0.3 |  | O=C(O)CSc1cc(NS(=O)(=O)c2ccc(Cl)cc2)c2ccccc2c1O [Compound 14p, 2-(4-(4-chlorophenylsulfonamido)-1-hydroxynaphthalen-2-ylthio)acetic acid] | 
8.57 ± 0.67 |  | CC(Sc1cc(NS(=O)(=O)c2ccc(Cl)cc2)c2ccccc2c1O)C(=O)O (stereo not shown) [Compound 14u, 2-(4-(4-chlorophenylsulfonamido)-1-hydroxynaphthalen-2-ylthio)propanoic acid] | decrease of proteasome inhibition activity relative to comparator compound [1]: ~2 fold
 | the inhibitory activity totally lost | O=S(=O)(Nc1cc(SCCO)c(O)c2ccccc12)c1cccs1 [Compound 14k, N-(4-hydroxy-3-(2-hydroxyethylthio)naphthalen-1-yl)thiophene-2-sulfonamide] | 
9.11 ± 0.47 |  | CC(Sc1cc(NS(=O)(=O)c2ccc3ccccc3c2)c2ccccc2c1O)C(=O)O (stereo not shown) [Compound 14v, 2-(1-hydroxy-4-(naphthalene-2-sulfonamido)naphthalen-2-ylthio)propanoic acid] | decrease of proteasome inhibition activity relative to comparator compound [1]: ~2 fold
2.07 ± 0.55 |  | O=C(O)CSc1cc(NS(=O)(=O)c2cc(Cl)c(Cl)s2)c2ccccc2c1O [Compound 14n, 2-(4-(4,5-dichlorothiophene-2-sulfonamido)-1-hydroxynaphthalen-2-ylthio)acetic acid] | 
2.19 ± 0.23 |  | O=C(O)c1ccccc1Sc1cc(NS(=O)(=O)c2ccc(-c3ccccc3)cc2)c2ccccc2c1O [Compound 14t, 2-(4-(biphenyl-4-ylsulfonamido)-1-hydroxynaphthalen-2-ylthio)benzoic acid] | 
1.18 ± 0.3 |  | COC(=O)CCSc1cc(NS(=O)(=O)c2cc(Cl)c(Cl)s2)c2ccccc2c1O [Compound 14m, Methyl-3-(4-(4,5-dichlorothiophene-2-sulfonamido)-1-hydroxynaphthalen-2-ylthio)propanoate] | 
